According to publication PMC6321168, “Comparative Study on Excretive Characterization of Main Components in Herb Pair Notoginseng-Safflower and Single Herbs by LC–MS/MS” (Pharmaceutics, 2018):

Assay: Urinary excretion study in rats after oral NS, SF or CNS (LC–MS/MS)
Assay type: in vivo
Conditions: for concentration at 2 h / concentration at 4 h / concentration at 8 h / concentration at 12 h / concentration at 24 h / concentration at 36 h / concentration at 48 h / concentration at 72 h / concentration at 96 h / concentration at 120 h / concentration at 6 h: male, Sprague Dawley, rat, urine, oral; for Accumulative excretion amount / Accumulative excretion percentage / Excretion amount: rat urine
Procedure: The animal room was set at constant temperature of 20 ± 2 °C with humidity of 50 ± 20% and 12/12 h light/dark cycle.
Eighteen male rats were fasted for 12 h before starting the experiment. The rats were divided into three groups at random (n = 6) and received NS (60 mg/kg), SF (50 mg/kg), and NS (60 mg/kg) + SF (50 mg/kg), respectively, by oral gavage. The rats were placed in separate metabolic cages. The urine samples were collected at 0–2, 2–4, 4–6, 6–8, 8–12, 12–24, 24–36, 36–48, 48–72, 72–96, and 96–120 h. The feces samples were collected at 0–4, 4–8, 8–12, 12–24, 24–36, 36–48, 48–72, 72–96, and 96–120 h. The urine volume was recorded and the dry feces were measured for each collection period. Samples were stored at −80 °C until analysis.
An aliquot of 200 μL urine sample was mixed with 10 μL of IS and evaporated to dryness with a ZLS-2 vacuum centrifugal concentrator (Herexi Co., Ltd., Changsha, Hunan, China). The residue was reconstituted in 100 μL of 50% methanol vortexed for 2 min and centrifuged at 12,000 rpm for 15 min. Finally, a 1 μL aliquot was injected for LC–MS analysis.
Ultra fast liquid chromatography (UFLC) analysis was performed using a Shimadzu UFLC system (DGU-20A3R Degasser; LC-20AD pump; SIL-20AXR Autosampler; CTO-20AC Column Oven) (Nakagyo-Ku, Koyoto, Japan). […] Because of the different endogenous substances in the urine and feces samples, different elution gradients were used to alleviate the matrix effects for the analytes.
The mass spectrometric detection was performed on an ABSciex 4500 Qtrap mass spectrometer (ABSciex, Foster City, CA, USA) equipped with a negative electrospray ionization (ESI) interface using multiple reaction monitoring (MRM). The MS parameters were optimized under the selected ion monitoring conditions as follows: curtain gas, 35 psi; ionspray voltage, 4500 V; turbo gas temperature, 450 °C; GS1, 45 psi; GS2, 45 psi. All data were acquired and analyzed by Analyst software (Versions 1.6.2) from ABSciex.
The accumulative excretion percentage was calculated for each analyte as follows. Excretion at time (t) = [concentration of the analyte (ng/mL) at t] × total urine (or feces) volume (mL) at t. The cumulative excretion up to time t (mg) was expressed as a percent (%) cumulative excretion by dividing by the total amount of the analyte ingested (mg): % Cumulative Excretion = 100 × (Σt excretiont) total ingested.

For `CC(C)=CCC[C@](C)(O[C@@H]1O[C@H](CO[C@@H]2O[C@H](CO)[C@@H](O)[C@H](O)[C@H]2O)[C@@H](O)[C@H](O)[C@H]1O)[C@H]1CC[C@]2(C)[C@@H]1[C@H](O)C[C@@H]1[C@@]3(C)CC[C@H](O[C@@H]4O[C@H](CO)[C@@H](O)[C@H](O)[C@H]4O[C@@H]4O[C@H](CO)[C@@H](O)[C@H](O)[C@H]4O)C(C)(C)[C@@H]3CC[C@]12C` [ginsenoside Rb1], the concentration at 2 h (60 mg/kg, oral NS 60 mg/kg, 2 h) was 115 ± 284 ng/mL, the concentration at 4 h (60 mg/kg, oral NS 60 mg/kg, 4 h) was 245 ± 450 ng/mL and the concentration at 8 h (60 mg/kg, oral NS 60 mg/kg, 8 h) was 140 ± 196 ng/mL. The concentration at 12 h (60 mg/kg, oral NS 60 mg/kg, 12 h) was 214 ± 344 ng/mL, the concentration at 24 h (60 mg/kg, oral NS 60 mg/kg, 24 h) was 240 ± 553 ng/mL and the concentration at 36 h (60 mg/kg, oral NS 60 mg/kg, 36 h) was 61 ± 54 ng/mL. It also gave a concentration at 48 h (60 mg/kg, oral NS 60 mg/kg, 48 h) of 142 ± 344 ng/mL, a concentration at 72 h (60 mg/kg, oral NS 60 mg/kg, 72 h) of 84 ± 195 ng/mL and a concentration at 96 h (60 mg/kg, oral NS 60 mg/kg, 96 h) of 45 ± 104 ng/mL. It also gave a concentration at 120 h (60 mg/kg, oral NS 60 mg/kg, 120 h) of 25 ± 62 ng/mL, a concentration at 2 h (oral CNS 110 mg/kg, 2 h) of 54 ± 73 ng/mL and a concentration at 4 h (oral CNS 110 mg/kg, 4 h) of 27 ± 41 ng/mL. For the same compound, the concentration at 6 h (oral CNS 110 mg/kg, 6 h) was 111 ± 121 ng/mL, the concentration at 8 h (oral CNS 110 mg/kg, 8 h) was 105 ± 100 ng/mL and the concentration at 12 h (oral CNS 110 mg/kg, 12 h) was 120 ± 134 ng/mL. The concentration at 24 h (oral CNS 110 mg/kg, 24 h) was 72 ± 50 ng/mL, the concentration at 36 h (oral CNS 110 mg/kg, 36 h) was 138 ± 144 ng/mL and the concentration at 48 h (oral CNS 110 mg/kg, 48 h) was 51 ± 60 ng/mL. It also gave a concentration at 72 h (oral CNS 110 mg/kg, 72 h) of 33 ± 28 ng/mL, a concentration at 96 h (oral CNS 110 mg/kg, 96 h) of 19 ± 14 ng/mL and a concentration at 120 h (oral CNS 110 mg/kg, 120 h) of 14 ± 12 ng/mL. For the same compound, the concentration at 6 h (oral NS 60 mg/kg, 6 h) was 140 ± 244 ng/mL, the Accumulative excretion amount (oral CNS 110 mg/kg, 2 h) was 0.075 ± 0.093 µg and the Accumulative excretion percentage (oral CNS 110 mg/kg, 2 h) was 0.002±0.002%. It also gave an Excretion amount (oral CNS 110 mg/kg, 2 h) of 0.075 ± 0.093 µg, an Accumulative excretion amount (oral CNS 110 mg/kg, 4 h) of 0.106 ± 0.086 µg and an Accumulative excretion percentage (oral CNS 110 mg/kg, 4 h) of 0.003±0.002%. For the same compound, the Excretion amount (oral CNS 110 mg/kg, 4 h) was 0.044 ± 0.050 µg, the Accumulative excretion amount (oral CNS 110 mg/kg, 6 h) was 0.218 ± 0.166 µg and the Accumulative excretion percentage (oral CNS 110 mg/kg, 6 h) was 0.006±0.004%. For the same compound, the Excretion amount (oral CNS 110 mg/kg, 6 h) was 0.158 ± 0.142 µg, the Accumulative excretion amount (oral CNS 110 mg/kg, 8 h) was 0.339 ± 0.213 µg and the Accumulative excretion percentage (oral CNS 110 mg/kg, 8 h) was 0.009±0.006%. For the same compound, the Excretion amount (oral CNS 110 mg/kg, 8 h) was 0.212 ± 0.169 µg, the Accumulative excretion amount (oral CNS 110 mg/kg, 12 h) was 0.472 ± 0.310 µg and the Accumulative excretion percentage (oral CNS 110 mg/kg, 12 h) was 0.013±0.008%. For the same compound, the Excretion amount (oral CNS 110 mg/kg, 12 h) was 0.154 ± 0.128 µg, the Accumulative excretion amount (oral CNS 110 mg/kg, 24 h) was 0.859 ± 0.527 µg and the Accumulative excretion percentage (oral CNS 110 mg/kg, 24 h) was 0.023±0.014%. For the same compound, the Excretion amount (oral CNS 110 mg/kg, 24 h) was 0.388 ± 0.391 µg, the Accumulative excretion amount (oral CNS 110 mg/kg, 36 h) was 1.056 ± 0.587 µg and the Accumulative excretion percentage (oral CNS 110 mg/kg, 36 h) was 0.028±0.016%. For the same compound, the Excretion amount (oral CNS 110 mg/kg, 36 h) was 0.197 ± 0.129 µg, the Accumulative excretion amount (oral CNS 110 mg/kg, 48 h) was 1.303 ± 0.684 µg and the Accumulative excretion percentage (oral CNS 110 mg/kg, 48 h) was 0.035±0.018%. It also gave an Excretion amount (oral CNS 110 mg/kg, 48 h) of 0.247 ± 0.216 µg, an Accumulative excretion amount (oral CNS 110 mg/kg, 72 h) of 1.373 ± 0.705 µg and an Accumulative excretion percentage (oral CNS 110 mg/kg, 72 h) of 0.037±0.019%. It also gave an Excretion amount (oral CNS 110 mg/kg, 72 h) of 0.070 ± 0.060 µg, an Accumulative excretion amount (oral CNS 110 mg/kg, 96 h) of 1.414 ± 0.715 µg and an Accumulative excretion percentage (oral CNS 110 mg/kg, 96 h) of 0.038±0.019%. It also gave an Excretion amount (oral CNS 110 mg/kg, 96 h) of 0.040 ± 0.031 µg, an Accumulative excretion amount (oral CNS 110 mg/kg, 120 h) of 1.436 ± 0.726 µg and an Accumulative excretion percentage (oral CNS 110 mg/kg, 120 h) of 0.038±0.019%. The Excretion amount (oral CNS 110 mg/kg, 120 h) was 0.022 ± 0.025 µg, the Accumulative excretion amount (oral NS 60 mg/kg, 2 h) was 0.075 ± 0.063 µg and the Accumulative excretion percentage (oral NS 60 mg/kg, 2 h) was 0.002±0.001%. For the same compound, the Excretion amount (oral NS 60 mg/kg, 2 h) was 0.075 ± 0.063 µg, the Accumulative excretion amount (oral NS 60 mg/kg, 4 h) was 0.574 ± 1.167 µg and the Accumulative excretion percentage (oral NS 60 mg/kg, 4 h) was 0.013±0.027%. For the same compound, the Excretion amount (oral NS 60 mg/kg, 4 h) was 0.872 ± 1.518 µg, the Accumulative excretion amount (oral NS 60 mg/kg, 6 h) was 0.798 ± 1.077 µg and the Accumulative excretion percentage (oral NS 60 mg/kg, 6 h) was 0.019±0.025%. For the same compound, the Excretion amount (oral NS 60 mg/kg, 6 h) was 0.262 ± 0.207 µg, the Accumulative excretion amount (oral NS 60 mg/kg, 8 h) was 0.863 ± 1.044 µg and the Accumulative excretion percentage (oral NS 60 mg/kg, 8 h) was 0.021±0.025%. The Excretion amount (oral NS 60 mg/kg, 8 h) was 0.152 ± 0.084 µg, the Accumulative excretion amount (oral NS 60 mg/kg, 12 h) was 1.139 ± 1.140 µg and the Accumulative excretion percentage (oral NS 60 mg/kg, 12 h) was 0.027±0.027%. It also gave an Excretion amount (oral NS 60 mg/kg, 12 h) of 0.276 ± 0.142 µg, an Accumulative excretion amount (oral NS 60 mg/kg, 24 h) of 1.881 ± 1.352 µg and an Accumulative excretion percentage (oral NS 60 mg/kg, 24 h) of 0.044±0.032%. It also gave an Excretion amount (oral NS 60 mg/kg, 24 h) of 0.742 ± 0.289 µg, an Accumulative excretion amount (oral NS 60 mg/kg, 36 h) of 2.275 ± 1.435 µg and an Accumulative excretion percentage (oral NS 60 mg/kg, 36 h) of 0.053±0.033%. For the same compound, the Excretion amount (oral NS 60 mg/kg, 36 h) was 0.394 ± 0.221 µg, the Accumulative excretion amount (oral NS 60 mg/kg, 48 h) was 2.476 ± 1.415 µg and the Accumulative excretion percentage (oral NS 60 mg/kg, 48 h) was 0.058±0.033%. The Excretion amount (oral NS 60 mg/kg, 48 h) was 0.201 ± 0.117 µg, the Accumulative excretion amount (oral NS 60 mg/kg, 72 h) was 2.506 ± 1.429 µg and the Accumulative excretion percentage (oral NS 60 mg/kg, 72 h) was 0.058±0.033%. It also gave an Excretion amount (oral NS 60 mg/kg, 72 h) of 0.030 ± 0.020 µg, an Accumulative excretion amount (oral NS 60 mg/kg, 96 h) of 2.521 ± 1.438 µg and an Accumulative excretion percentage (oral NS 60 mg/kg, 96 h) of 0.060±0.034%. For the same compound, the Excretion amount (oral NS 60 mg/kg, 96 h) was 0.016 ± 0.011 µg, the Accumulative excretion amount (oral NS 60 mg/kg, 120 h) was 2.528 ± 1.439 µg and the Accumulative excretion percentage (oral NS 60 mg/kg, 120 h) was 0.060±0.034%. It also gave an Excretion amount (oral NS 60 mg/kg, 120 h) of 0.006 ± 0.003 µg.
